From a melting point compilation (Tetko et al.)

melting point [°C] | SMILES
40 | Nc1ccc(Br)cc1F
126 | CCCC(C(N)=O)n1nc2ccccc2n1 (stereo unspecified)
217 to 220 | ClC1=C(Cl)C2(Cl)C3C(c4ccccc4C4C3C3(Cl)C(Cl)=C(Cl)C4(Cl)C3(Cl)Cl)C1(Cl)C2(Cl)Cl (stereo unspecified)
233 to 235 | CC(C)C[C@H](NC(=O)CN)C(=O)O
245 to 247 | O=C(O)c1cncc(C#Cc2ccccc2)c1
108 to 109 | O=Cc1ccc(-c2ncccn2)cc1
210 to 215 | Nc1ccc(C(=O)O)c(Cl)c1
-120 | CC=CC(C)C
118 to 119 | COc1ccc(-c2ccc(C=O)s2)cc1
190 | Nc1c(CN2CCCCC2)c(=O)oc2ccccc12
290 | O=C(O)CCc1ccc(C(=O)O)cc1
73 | Cc1nc(CO)c(C)o1
212 to 216 | CSc1nc(NS(=O)(=O)c2ccc(C)cc2)c(C#N)c(-c2ccccc2)c1Br
39 | CCOC(=O)c1ccc(OC)cn1
214 | CC1(C)C2CCC1(C)C(O)C2 (stereo unspecified)
109 | CC12CCC(C(Br)(CBr)C1=O)C2(C)C (stereo unspecified)
173 | O=C(OCCc1ccc(CCOC(=O)c2ccc([N+](=O)[O-])cc2)cc1)c1ccc([N+](=O)[O-])cc1
144 | CCC(C(=O)Nc1ccc(C)cc1)C1CCC(OC)CC1 (stereo unspecified)
222 | NS(=O)(=O)c1cc2c(cc1C(F)(F)F)NC(Cc1ccccc1)NS2(=O)=O (stereo unspecified)
126 to 134 | CC1(C)C(O)C(C)(C)C1O (stereo unspecified)
85 to 87 | Cc1noc(-c2ccccc2)c1C=O
121 | COc1ccc(C(CCC(=O)O)C(C)(C)C(=O)O)cc1 (stereo unspecified)
200 | Cc1cc(C(F)(F)F)c(C#N)c(=S)[nH]1
86 | COc1cc(C)oc(=O)c1
190 | CSc1[nH]nc(N)c1C#N

melting point [°C] | SMILES
33 | CCCCCCC(=O)CCCCCC
238 | CC(=O)C1=C(C)NC(=O)NC1c1ccccc1 (stereo unspecified)
< 25 | O=S(=O)(O)C(F)(F)F
68 to 70 | C[C@@H](O)c1ccncc1
151 | NCCCOCCCN
222 | CCOC(=O)CCC(C)C1CCC2C3C(=O)CC4CC(=O)CCC4(C)C3CC(=O)C12C (stereo unspecified)
234 to 236 | O=c1[nH]cc(Cl)cc1[N+](=O)[O-]
121 to 126 | COc1ccc(CNc2ccccn2)cc1
162 to 164 | Fc1cccc(-n2cc[nH]c2=S)c1
68 | Nc1cccc2nsnc12
92 | NNC(=O)c1cccc(N)c1
288 | Cc1ccccc1NC=C1C(=O)NN=C1c1c(O)c2ccccc2n(C)c1=O
135 | Nc1ccc(-c2ccccc2)cn1
125 to 128 | O=C1Nc2ccccc2C12OCCO2
220 to 222 | N#Cc1cnc(N2CCCCC2)nc1N
80 | Cc1c(NC(C)C)c(=O)n(-c2ccccc2)n1C
106 | NC(=O)c1ccccn1
165 | Cc1ccc(S(=O)(=O)Nc2cc(N)c([N+](=O)[O-])cc2NS(=O)(=O)c2ccc(C)cc2)cc1
110 to 111 | O=C(/C=C/C(=O)c1ccccc1)c1ccccc1
225 to 227 | CC(C)[C@@H](O)[C@H](N)C(=O)O
88 | COc1ccc2c(c1)OC(c1ccccc1)CC2=O (stereo unspecified)
50 | Cc1ccc(C)n1CC1CCNCC1
32.5 | C1CCSSC1
156 | O=C(Nc1ccccc1[N+](=O)[O-])C(C(F)(F)F)C(F)(F)F
27 | CCCCCCCc1ccc(-c2ccccc2)cc1

melting point [°C] | SMILES
-90 | CC(C)CC(C)O (stereo unspecified)
133 to 135 | O=C(Cl)c1csc(-c2ccc3c(c2)CCO3)n1
300 | Cc1cc2nc3[nH]c(=O)[nH]c(=O)c3nc2cc1C
159 to 160 | COC(=O)c1cc(O)no1
82 to 84 | OC(CBr)C(O)CBr (racemic)
355 | CC1=NN(c2ccccc2)C(=O)C1C1C(=O)N(c2ccccc2)N=C1C (stereo unspecified)
82 | CCCCCCn1c(=O)c2c(ncn2C)n(C)c1=O
300 | Cn1c(=O)c(C2=NNC(=O)C2=NNc2ccc([N+](=O)[O-])cc2)c(O)c2ccccc21
43 | COc1ccc(C2(C#N)CCCCC2)cc1
88.5 | CC1(C)C=CC=C(C(=O)O)C=C1
99 | COc1cc(F)c(C=O)cc1F
182 to 185 | COc1cc2c(cc1O)C(C)=NCC2
173 to 177 | BrC1CCC(Br)C(Br)CCC(Br)C(Br)CCC1Br (stereo unspecified)
207 | COc1cc2c(Cc3ccccc3)cncc2cc1O
204 to 207 | O=C(O)c1cc(O)ccc1O
160 | Cc1ccc(N(CCO)CCO)cc1N=Nc1ccc([N+](=O)[O-])cc1
123 | CN(C)c1ccccc1-c1ccccc1P(C1CCCCC1)C1CCCCC1
222 | CC(C)(C)c1nnc(NS(=O)(=O)c2ccc(N)cc2)s1
194 | BrC(CCC(Br)C(Br)c1ccccc1)C(Br)c1ccccc1 (stereo unspecified)
120 to 123 | CCCNC(N)=S
39 to 40 | COC(=O)c1sccc1Cl
-73.1 | CCCCCOC(=O)CC
48 to 51 | Cc1ccc(S(=O)(=O)OCCOCc2ccccc2)cc1
79 | O=Cc1cc([N+](=O)[O-])ccc1Cl
89 to 90 | CC(=O)N1CC(C)=CC1=O

melting point [°C] | SMILES
102 | O=C1CCOc2ccc(Cl)cc21
241 to 242 | Cc1ccc(-c2ccc3c(c2)C=CC(=C2C(=O)c4ccccc4C2=O)N3)cc1
218 | Nc1cc2nc3c(cc2cc1C=O)CCCC3
-83 | CCCCCC1=CCCC1
162 | CC(=O)n1cc(C=O)c2ccccc21
185 to 188 | Cc1n[nH]c(SCC(=O)c2ccc(Cl)cc2)n1
34 | N#CCc1cccc(I)c1
38 to 39 | Clc1ccc(OCCBr)cc1
172 | CC(=O)N[C@@H](Cc1ccccc1)C(=O)O
166 | O=C(NC(Cc1cccnc1)C(=O)O)OCC1c2ccccc2-c2ccccc21 (stereo unspecified)
128 to 129 | O=C(C=Cc1ccc(-c2ccc(Cl)cc2)o1)c1ccccc1
254 to 257 | COc1cc2c(cc1O)CN(C1CC=CC(=O)C1)CC2 (stereo unspecified)
135 to 136 | NC(=S)c1ncc(C(F)(F)F)cc1Cl
209 to 210 | Cc1nc2scc(-c3ccccc3)c2c(=O)n1NC(=O)c1ccccc1Cl
190 | Cc1ccc2cc(N)ccc2n1
89 to 92 | COc1cc(OC)c(Cl)cc1N
127 to 130 | COc1ccc(-c2cc[nH]n2)cc1
407 | O=C(O)c1ccc2c(c1)C(=O)c1cc(C(=O)O)ccc1-2
182 to 184 | Brc1ccc(C#Cc2ccc(Br)cc2)cc1
125 to 126 | O=Cc1cc(O)ccc1I
155 | Cc1ccc(/C=C2\CN(S(=O)(=O)c3ccc(C)cc3)c3ccccc3N2S(=O)(=O)c2ccc(C)cc2)cc1
151 | Nc1ccc(O)cc1[N+](=O)[O-]
230 | Oc1cc(C(F)(F)F)nc2cc(Cl)cc(Cl)c12
-18 | CCCCCCCCCC(=O)OC
91 | O=Cc1cc(Cl)cc(Cl)c1[N+](=O)[O-]

melting point [°C] | SMILES
108 to 111 | O=Cc1cnc2ccccc2n1
270 | O=C(O)c1ccc[nH]c1=S
32 | Oc1ccc(F)c(F)c1F
198 | CCCN(CCC)S(=O)(=O)c1ccc(C(=O)O)cc1
-5 | COC(OC)(OC)OC
197 to 198 | O=C(c1ccc(O)cc1)c1ccc(O)cc1O
99 | COc1cc(N)c(C#N)cc1OC
89 to 91 | COc1cccc2c1ccn2C
71 to 72 | Cc1nc(-c2cccc(CBr)c2)no1
142 | O=C(O)CC(F)(F)C(=O)O
71 to 73 | CCOC(=O)c1cc(C(=O)CBr)on1
38 | O=C(O)C1=CCCCC1
158 | COc1ccccc1C1(C)CCc2oc3ccccc3c2-c2oc(C)cc21 (stereo unspecified)
-18.1 | CC(=O)c1cc(C)ccc1C
38 | Fc1cnc(Cl)nc1Cl
119 | CC1(C)C2CCC1(C)C(C(=O)O)C2CC(O)c1ccccc1 (stereo unspecified)
131 to 133 | CC(=O)Nc1cccnc1
211 to 212 | N#Cc1cccc2c(NC(=O)c3ccccc3)cccc12
34 | CCCCCCCCCCCCCCCCCCI
219 to 224 | CCOP(=O)(OCC)Oc1c2cccc1Cc1cccc(c1O)Cc1cccc(c1OP(=O)(OCC)OCC)Cc1cccc(c1O)C2
120 to 122 | Cc1ccc(F)cc1C(N)=O
292 to 294 | O=C(C=Cc1ccc(C=CC(=O)Nc2ccccc2)cc1)Nc1ccccc1
66 | O=Cc1c(F)cc(F)cc1F

SMILES | melting point [°C]
CC12CCC3C4CCC(=O)C(O)=C4CCC3C1CCC2O (stereo unspecified) | 189
COc1cc(Cl)c(OC)cc1Cl | 134
Cc1c(C(=O)O)nnn1Cc1ccc(Br)cc1 | 192 to 193
CCC(C)Br (stereo unspecified) | -112
N#Cc1cccc(Cl)c1 | 41
Brc1ccc(Oc2ccc(Br)cc2Br)cc1 | 64 to 64.5
CN=C=O | -45
O=[N+]([O-])c1cnc(NC2=NCCN2)s1 | > 250
CC(C)C(N)CC(=O)O (stereo unspecified) | 206 to 209
CCOP(=S)(OCC)Oc1ccc2c(C)c(Cl)c(=O)oc2c1 | 95
C#CCO | -51.8
COc1c(Cl)ccc(Cl)c1Cl | 45
CCCCCCc1ccc(O)cc1 | 32
